Source: patent US9006487B2, “Amine-containing lipids and uses thereof” (Massachusetts Institute of Technology, priority 2005, dated 2015)
Where “and” joins values, the source holds several entries; their conditions need not be identical. Identical values can stand only once.

Columns and labels:
[1] = DNA delivery: raw luciferase expression (relative light units) of best-transfecting lipids; assay type: cell-based; details: 300 ng of DNA per well
Experimental: Raw values for luciferase expression (relative lights units) of best-transfecting lipids at lipid/DNA (w/w) ratios listed. 300 ng of DNA was added per well.

cos-7 cells = test: DNA transfection: luciferase expression relative to Lipofectamine 2000; assay type: cell-based; details: for luciferase expression (second part of table, values relative to LIPO2000): 300 ng of DNA per well
In short: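 Lipid/DNA complexes, 300 ng luciferase DNA per well at 2.5-25 w/w lipid:DNA, were formed in sodium acetate/Optimem and added to overnight-seeded cos-7 cells. Luciferase was measured by Bright-Glo luminescence after 48 hours and quantified against an enzyme standard curve. Values are expressed as % of Lipofectamine 2000 at 2.5 w/w.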

SMILES | Raw values for luciferase expression ([1]; lipid/DNA 2.5 w/w) | Raw values for luciferase expression ([1]; lipid/DNA 5 w/w) | luciferase expression (second part of table, values relative to LIPO2000) (cos-7 cells; lipid/DNA 2.5 w/w) | luciferase expression (second part of table, values relative to LIPO2000) (cos-7 cells; lipid/DNA 5 w/w) | luciferase expression (second part of table, values relative to LIPO2000) (cos-7 cells; lipid/DNA 10 w/w) | luciferase expression (second part of table, values relative to LIPO2000) (cos-7 cells; lipid/DNA 15 w/w) | luciferase expression (second part of table, values relative to LIPO2000) (cos-7 cells; lipid/DNA 20 w/w) | luciferase expression (second part of table, values relative to LIPO2000) (cos-7 cells; lipid/DNA 25 w/w) | luciferase expression, second set of columns (replicate set of data) (cos-7 cells; 1st column, no head printed (2.5 w/w by the raw values)) | luciferase expression, second set of columns (replicate set of data) (cos-7 cells; 2nd column, no head printed (5 w/w by the raw values)) | luciferase expression, second set of columns (replicate set of data) (cos-7 cells; 3rd column, no head printed (10 w/w by the raw values)) | luciferase expression, second set of columns (replicate set of data) (cos-7 cells; 4th column, no head printed (15 w/w by the raw values))
CCCCCCCCCCCCNC(=O)CCN(CCC(=O)NCCCCCCCCCCCC)CC(O)CO (stereo not shown) [ND24] | 5256861 relative lights units | 1231973 relative lights units | 157.6 | 30.5 | 2.4 | 0.2 | 0.0 | 0.0 |  |  |  | 
CCCCCCCCCCCCCCNC(=O)CCN(CC)CCCN(CC)CCC(=O)NCCCCCCCCCCCCCC [NF64] | 384317 relative lights units | 2283250 relative lights units | 5.7 | 41.9 | 0.3 | 0.1 |  |  |  |  |  | 
CCCCCCCCCCCCCCNC(=O)CCN(CCCN(CCC(=O)NCCCCCCCCCCCCCC)CCC(=O)NCCCCCCCCCCCCCC)CCC(=O)NCCCCCCCCCCCCCC [NF100] | 1061441 relative lights units | 8015 relative lights units | 75.9 | 0.5 | 0.0 | 0.0 |  |  |  |  |  | 
CCCCCCCCCCCCCCNC(=O)CCN(CC)CCN(CC)CCC(=O)NCCCCCCCCCCCCCC [NF61] |  | 3689556 relative lights units and 3053999 relative lights units | 63.9 | 67.7 | 7.0 | 2.9 |  |  | 5.2 | 38.9 | 8.6 | 1.1
CCCCCCCCCCCCNC(=O)CCN(CCC(=O)NCCCCCCCCCCCC)C(CO)CO [ND25] | 7548491 relative lights units | 5088120 relative lights units | 226.4 | 125.8 | 19.5 | 0.5 | 0.0 | 0.0 |  |  |  | 
CCCCCCCCCCCCCCNC(=O)CCN(CCC(=O)NCCCCCCCCCCCCCC)CCN(CCO)CCO [NF86] | 4798383 relative lights units | 4087285 relative lights units | 56.7 | 53.3 | 4.5 | 2.3 |  |  |  |  |  | 
